The source of these data is patent US20260226048A1, “MULTI-CYCLIC IRAK AND FLT3 INHIBITING COMPOUNDS AND USES THEREOF” (CHILDREN'S HOSPITAL MEDICAL CENTER, priority 2023, published 2026).

A word on the IC50: it is the midpoint of a concentration-inhibition curve. What is called Kd is the equilibrium constant for the complex coming apart.

Experiment [1] relates to NF-κB-inducible SEAP reporter in THP-1-Blue NF-κB cells. The experiment in a line: NF-kB SEAP reporter assay in THP-1-Blue NF-κB cells. Format: cell-based. The note with it: 24 hours. A digest of the protocol:
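Cells (1×10^5/well) stimulated with Pam3CSK4 (1 ng/mL) or hIL1B (1 ng/mL), then after 10-20 min given 10-point 1:10 compound dilutions from 1 μM or 3 μM for 24 h at 37° C. Secreted SEAP in supernatant read with QUANTI-Blue (30-60 min, 37° C) at 620 nm.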
(In general: In a reporter assay the amount or activity of a reporter protein is the signal.)

Experiment [2] deals with THP1 cells (FLT3 WT). Nature of the experiment: Combination drug screening with venetoclax in THP1 cells (Cell Titre Glo, 10 × 10). Format: cell-based. The note with it: for Excess HSA (sum excess HSA score, combination with venetoclax): 10 × 10 dataset, Cell Titre Glo at 48 hours, optimal of 4 dose combinations, negative = synergy; for Concentration needed to decrease the 312.5 nM Venetoclax response to <20%: Cell Titer Glo at 48 hours. As for the experimental part:
These assays were performed using the Cell Titre Glo assay, measured at 48 hours.
A smaller concentration indicates higher potency to synergize with Venetoclax.
In general terms: In ATP-based viability assays light output follows the ATP content of the culture.

The target in experiment [3] is T1, FLT3 K663Q (Homo sapiens, UniProt P36888, K663Q).
T1 construct: purchased DiscoverX (KINOMEscan); host or cells: E. coli BL21-derived host (T7 phage) or HEK-293
T1 sequence (P36888 27-993 K663Q): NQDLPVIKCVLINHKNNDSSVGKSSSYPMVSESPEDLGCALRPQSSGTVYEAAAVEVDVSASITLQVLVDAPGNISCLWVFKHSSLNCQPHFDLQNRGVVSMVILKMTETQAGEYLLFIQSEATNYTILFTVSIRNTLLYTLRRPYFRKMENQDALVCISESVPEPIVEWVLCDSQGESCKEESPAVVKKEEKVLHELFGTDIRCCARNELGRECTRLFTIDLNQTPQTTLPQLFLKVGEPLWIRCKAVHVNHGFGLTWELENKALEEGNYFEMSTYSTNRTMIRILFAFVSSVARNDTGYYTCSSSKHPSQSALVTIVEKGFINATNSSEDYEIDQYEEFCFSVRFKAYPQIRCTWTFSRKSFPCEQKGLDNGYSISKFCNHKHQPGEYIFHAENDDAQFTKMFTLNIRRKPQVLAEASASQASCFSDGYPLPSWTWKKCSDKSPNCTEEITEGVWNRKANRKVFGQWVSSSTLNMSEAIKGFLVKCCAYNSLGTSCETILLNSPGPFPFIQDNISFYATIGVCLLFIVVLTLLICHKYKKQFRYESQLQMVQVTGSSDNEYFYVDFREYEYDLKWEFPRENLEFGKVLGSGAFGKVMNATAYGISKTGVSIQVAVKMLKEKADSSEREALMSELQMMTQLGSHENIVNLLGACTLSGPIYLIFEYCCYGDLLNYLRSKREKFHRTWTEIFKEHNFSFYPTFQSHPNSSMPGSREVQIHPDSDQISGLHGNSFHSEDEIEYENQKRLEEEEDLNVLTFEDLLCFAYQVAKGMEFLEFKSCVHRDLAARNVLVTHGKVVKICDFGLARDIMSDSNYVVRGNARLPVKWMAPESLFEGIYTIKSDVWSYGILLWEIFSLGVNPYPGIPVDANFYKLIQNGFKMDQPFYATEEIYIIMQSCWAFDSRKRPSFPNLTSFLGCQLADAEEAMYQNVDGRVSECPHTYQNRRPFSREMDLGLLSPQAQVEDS
Nature of the experiment: DiscoverX KINOMEscan competition binding assay, FLT3 K663Q. As to conditions: 11-point 3-fold dilution. From the text:
[…]. […] As a result, the data report thermodynamic interaction affinities (Kd values), rather than IC50 values that are dependent on ATP concentrations. The assay uses a DNA-tagged version of the protein kinase, and an immobilized ligand bound to a solid support. Compounds that directly or indirectly prevent kinase binding to the immobilized ligand reduce the amount of kinase captured on the solid support, which is detected using an ultra-sensitive qPCR method. Affinity constants reported from the assay have been reported to be independent of the immobilized ligand used that is coupled to the solid support (See supplemental information in Fabian, M. A. et. al., (2005) Nat. Biotechnol. 23, 329-336; Wodicka, L. M. et. al., (2010) Chem. Biol. 17, 1241-1249.)
Kinase-tagged T7 phage strains were prepared in an E. coli host derived from the BL21 strain. E. coli were grown to log-phase and infected with T7 phage and incubated with shaking at 32° C. until lysis. The lysates were centrifuged and filtered to remove cell debris. The remaining kinases were produced in HEK-293 cells and subsequently tagged with DNA for qPCR detection. Streptavidin-coated magnetic beads were treated with biotinylated small molecule ligands for 30 minutes at room temperature to generate affinity resins for kinase assays. The liganded beads were blocked with excess biotin and washed with blocking buffer (SeaBlock (Pierce), 1% BSA, 0.05% Tween 20, 1 mM DTT) to remove unbound ligand and to reduce non-specific binding. […] Test compounds were prepared as 111× stocks in 100% DMSO. Kds were determined using an 11-point 3-fold compound dilution series with three DMSO control points. All compounds for Kd measurements are distributed by acoustic transfer (non-contact dispensing) in 100% DMSO. The compounds were then diluted directly into the assays such that the final concentration of DMSO was 0.9%. All reactions were performed in polypropylene 384-well plates. Each was a final volume of 0.02 mL. […] The kinase concentration in the eluates was measured by qPCR.
Binding constants (Kds) were calculated with a standard dose-response curve using the Hill equation. The Hill Slope was set to −1. Curves were fitted using a non-linear least square fit with the Levenberg-Marquardt algorithm.

Where [4] appears, read: THP-1-Blue NF-κB cells stimulated with Pam3CSK4 (1 ng/mL), read-out: NF-κB Pam3SCK4 IC50.
The mark [5] stands for this setting: THP-1-Blue NF-κB cells stimulated with hIL1B (1 ng/mL), read-out: NF-κB IL1B IC50.

The structures appear in SMILES notation. Read-outs that look alike come from different tables or passages of the source.

Take `CC(C)(O)c1ccc2ncc(-c3nc(N[C@H]4CNCC[C@@H]4F)ncc3F)n2c1` [Compound 46a, 2-(3-(5-fluoro-2-(((3S,4S)-4-fluoropiperidin-3-yl)amino)pyrimidin-4-yl)imidazo[1,2-a]pyridin-6-yl)propan-2-ol]: the IC50 in experiment [1] (setting [4]) is 103 nM. In addition, the half-inhibitory concentration (IC50) in experiment [1] (setting [5]) came to 112 nM. Moreover, in experiment [2], the “Excess HSA (sum excess HSA score, combination with venetoclax)” value was −774 and the “Concentration needed to decrease the 312.5 nM Venetoclax response to <20%” value was 2.5 µM. The molecule also came in with a Kd in experiment [3] of 3.7 nM.
Take `COc1cc2ncc(-c3nc(N[C@H]4CNCC[C@@H]4F)ncc3F)n2nc1C1COC1` [Compound 92a, 5-fluoro-N-((3S,4S)-4-fluoropiperidin-3-yl)-4-(7-methoxy-6-(oxetan-3-yl)imidazo[1,2-b]pyridazin-3-yl)pyrimidin-2-amine]: the 50% inhibitory concentration (IC50) in experiment [1] (setting [4]) is 53 nM; in experiment [1] (setting [5]), 60 nM. Also, in experiment [2], the “Excess HSA (sum excess HSA score, combination with venetoclax)” value is listed as −529.2. Besides, the “Concentration needed to decrease the 312.5 nM Venetoclax response to <20%” value in experiment [2] came out at 5 µM. In addition, the dissociation constant Kd in experiment [3] was found to be 0.49 nM.
For `CC(C)(O)c1cn2c(-c3nc(N[C@H]4CNCC[C@@H]4F)ncc3F)cnc2cn1` [Compound 100a, 2-(3-(5-fluoro-2-(((3S,4S)-4-fluoropiperidin-3-yl)amino)pyrimidin-4-yl)imidazo[1,2-a]pyrazin-6-yl)propan-2-ol] the same measures were 69 nM, 83 nM, −1080, 10 µM and 30 nM.
